From patent US7189701B1, “Tetrapeptide stimulating functional activity of neurons pharmacological agent based thereon and method of use thereof” (Sankt-Petersburgskaya Obschestvennaya Organizatsiya …, priority 1999, dated 2007)
Residues, ends and D or L forms follow the SMILES beside them.

Columns and labels:
[1] = tested on: rats; assay: Toxic effects of neurotropic agents (apomorphine, haloperidol, nicotine, caffeine), spontaneous motional activity; type: in vivo
Procedure: Investigated was the action of L-Ala-L-Glu-L-Asp-L-Pro tetrapeptide on the toxic effects of neurotropic agents of various pharmacological groups.
In an hour after an intramuscular injection of saline (control) or L-Ala-L-Glu-L-Asp-L-Pro tetrapeptide (5 μg/kg) the rats were intraperitoneally administered toxic doses of different neuropharmacological agents (apomorphine, haloperidol, nicotine and caffeine). Thereby, the parameters of vertical (anxiety) and horizontal (locomotor activity) spontaneous motional activity were registered.

[2] = tested on: rats; assay: Chronic toxicity, 6 months intramuscular; type: in vivo
Procedure: Chronic toxicity of L-Ala-L-Glu-L-Asp-L-Pro (SEQ ID NO:1) tetrapeptide obtained by the claimed method was investigated by means of a long-term administration thereof to rats weighing 150–250 g. The animals were subject to daily intramuscular administration of the drug in doses 1 μg/kg, 0.1 mg/kg, 1 mg/kg in 0.5 ml of saline for 6 months. Animals' behaviour, food and water consumption, the state of hair integument and mucous membranes were registered. The animals were weighed daily for the first 3 months of the experiment and then—once a month. Haematological and biochemical investigations were conducted in 3 months after the onset of the drug administration and on the experiment completion. Functions of the cardiovascular system, liver, pancreas, kidneys and adrenal glands were assessed. After the treatment completion some animals were subject to pathomorphologic examination with the purpose to estimate the state of different sections of the brain and bone marrow, heart, aorta, lungs, liver, kidneys, endocrine and immune organs.

[3] = 5 μg/kg intramuscular 1 hour before toxic dose of caffeine i.p.

C[C@H](N)C(=O)N[C@@H](CCC(=O)O)C(=O)N[C@@H](CC(=O)O)C(=O)N1CCC[C@H]1C(=O)O [L-Ala-L-Glu-L-Asp-L-Pro tetrapeptide, L-Alanyl-L-Glutamyl-L-Aspartyl-L-Proline] (H-AEDP-OH)
effect on apomorphine toxic effects (anxiety, locomotor activity) ([1]; 5 μg/kg intramuscular 1 hour before toxic dose of apomorphine i.p.): diminished anxiety and locomotor activity
effect on caffeine-induced anxiety [1, 3]: lowered caffeine-induced anxiety
effect on locomotor activity after caffeine [1, 3]: did not affect locomotor activity
effect on haloperidol toxic effects (anxiety, locomotor activity) ([1]; 5 μg/kg intramuscular 1 hour before toxic dose of haloperidol i.p.): increased anxiety and locomotor activity
effect on nicotine toxic effects (anxiety) ([1]; 5 μg/kg intramuscular 1 hour before toxic dose of nicotine i.p.): decreased the influence of nicotine on the animals' anxiety
side effects, chronic toxicity ([2]; intramuscular daily for 6 months, 1 μg/kg, 0.1 mg/kg, 1 mg/kg): absence of any side effects
pathologic alterations (general state, peripheral blood indices, intrinsic organs, cardiovascular and respiratory systems, liver and kidney functions) ([2]; prolonged intramuscular administration to rats): no pathologic alterations
